From publication PMC6320925, “Synthesis, In Vitro Biological Evaluation, and Oxidative Transformation of New Flavonol Derivatives: The Possible Role of the Phenyl-N,N-Dimethylamino Group” (Molecules, 2018)

Key:
[1] = design: method as in ref 20 (Culhaoglu et al.); details: ref 20 (Culhaoglu et al.); cited from earlier work
[2] = design: method as in ref 20 (Culhaoglu et al.); details: ref 20 (Culhaoglu et al.); cited from earlier work; remark: listed apart in the source
[3] = design: method as in PMID 28383511; details: cited from earlier work
[4] = ORAC assay (oxygen radical absorbance capacity); details: for ORAC value compared to quercetin: 10 µM; for ORAC value (AUCnet): 2 and 10 µM
Description: The oxygen radical absorbance capacity was evaluated using the ORAC assay. The test was carried out in a black 96-well plate with a black bottom. The stock solutions of 50 nM fluorescein and 180 mM AAPH in phosphate buffer (75 mM, pH 7.00) were prepared freshly and used on the same day. To each well, 20 µL of compound in ACN (2 and 10 µM) was added to 160 µL fluorescein. In the case of blank samples, 20 µL of ACN was added. The plate was incubated for 15 min at 37 °C, and then the 20 µL AAPH solution was rapidly added to each well to initiate the reaction. The fluorescence was monitored at 485 nm excitation and 520 nm emission wavelength for 2 h every 2 min by the FLUOstar OPTIMA (BMG Labtech, Ortenberg, Germany) plate reader. The assay was performed in duplicate and repeated three times. The area under the curve (AUC) was calculated as follows:AUC = 0.5 + (A1/A0) + (A2/A0) + (A3/A0) + ⋯ + (An/A0),(1) where A0 is the fluorescence reading at 0 min and An is the fluorescence reading at n min. The reported ORAC values were calculated by subtracting the blank AUC from the sample AUC and expressed as AUCnet. AUCnet = AUCsample − AUCblank(2)

H9c2 cells = test: MTT cell viability assay; format: cell-based; details: 20 µM, 12 h
Description: (§1) The MTT assay was used to determine the effect of the investigated compounds on the cell viability. H9c2 cells (ATCC, CRL-1446, LGC Standards GmbH, Wesel, Germany) were seeded into 96-well plates at a density of 6000 cells/well in 200 µL media (DMEM, high glucose, pyruvate from Thermo Fischer Scientific with 10% FBS and supplemented with penicillin and streptomycin) and cultured overnight. The flavonols were added to the cells in 20 µM concentration. After 12 h, 20 μL of MTT solution ([…] in PBS) was added to each well, and the plates were incubated for 4 h. Afterwards, the media was carefully removed and 100 μL DMSO was added to each well to dissolve the formazan crystals. Absorbance was measured at 540 and 630 nm using a Synergy HT plate reader (BioTek, Winooski, VT, USA). The tests were carried out in triplicate and repeated two times.

[5] = FRAP assay (ferric reducing antioxidant power); details: all tested concentrations (10–200 µM), 30 min incubation
Description: The ferric reducing antioxidant power of the compounds was tested with a modified method of Benzie and Strain [37]. The FRAP reagent consisted of 10 mL acetate buffer (300 mM, pH 3.6), 1 mL TPTZ solution (10 mM) in 40 mM HCl, and 1 mL FeCl3 (10 mM). The mixture was incubated at 37 °C for 15 min and used on the same day. The reaction mixture was prepared by 20 µL of the investigated compound (10, 20, 50, 100, and 200 µM) and 180 µL activated FRAP reagent in a 96-well plate. Following a 30 min incubation period, the absorbance was measured at 593 nm by a Multiskan GO microplate spectrophotometer (Thermo Fisher Scientific, Waltham, MA, USA). Iron (II) sulfate heptahydrate was used as the standard in different concentrations (0.5, 1, 5, 10, 50, 100, and 500 µM). The FRAP values are expressed as µM ferrous equivalents. The experiments were run in duplicate and repeated three times.

[6] = ABTS radical scavenging assay; details: from inhibition percentage at 120 min, concentration range 10–200 µM
Description: To measure the ABTS radical scavenging activity, the work of Sugahara et al. and Re et al. was followed closely, applying few alterations. A mixture containing 7 mM ABTS and 2.45 mM K2S2O8 in water was kept in the dark for 16 h to form ABTS^•+. The working solution was prepared by adding 150 µL of ABTS^•+ solution to 2.9 mL MeOH. Aliquots of 180 µL of this working solution were pipetted into wells containing 20 µL of test samples in DMSO with different concentrations (10, 20, 50, 100, and 200 µM). Absorbance was measured at 737 nm after 10 s mixing using a Multiskan GO microplate spectrophotometer (Thermo Fisher Scientific, Waltham, MA, USA) at 0, 1, 2, 3, 4, 5, 10, 15, 30, 45, 60, 75, 90, 105, and 120 min. Quercetin was used as the standard. The IC50 values were calculated based on the inhibition percentage measured at 120 min. The experiments were carried out in duplicate and repeated three times.

[7] = DPPH radical scavenging assay; details: from inhibition percentage at 90 min, concentration range 10–200 µM
Description: The method used for the DPPH radical scavenging assay was adopted from Clarke et al., with modifications. A total of 180 µL freshly made 0.2 mM DPPH solution in methanol was added to 20 µL of the investigated compounds in various concentrations (10, 20, 50, 100, and 200 µM) in DMSO. After a gentle, 10-s mixing period, the plate was kept in the dark for 90 min. and the absorbance was read at 515 nm using a Multiskan GO microplate spectrophotometer (Thermo Fisher Scientific, Waltham, MA, USA) at 0, 1, 2, 3, 4, 5, 10, 15, 30, 45, 60, 75, and 90 min. Blanks (20 µL DMSO with 180 µL MeOH) and quercetin standards in the same concentration as the tested compounds were measured simultaneously. The IC50 values were calculated based on the inhibition percentage measured at 90 min. The measurements were performed in duplicate and repeated three times.

[8] = Chemical Fenton reaction (biomimetic model of phase I biotransformation); format: in vitro ADME; details: ESI-MS and LC-MS detection
Description: The Fenton reaction of the compounds was carried out based on a method reported previously by Csepanyi et al.. The reaction mixture consisted of 400 μL 2.5 mM of the investigated compound in ACN, 50 μL 20 mM FeCl3, 50 μL 20 mM EDTA-Na2, and 500 μL 10 mM ascorbic acid in ACN/H2O (50:50) and 2 μL 30% hydrogen peroxide. The reaction mixture was stirred at room temperature at 700 rpm. Samples were drawn at 2, 24, 72, and 144 h and were diluted with ACN/H2O (50:50) and analyzed immediately by an API 2000 Triple Quadrupole mass spectrometer (Applied Biosystems, Waltham, MA, USA) equipped with a syringe pump with the following parameters: 20 μL/min flow rate, 10 PSI curtain gas, 20 V declustering potential, 4000 V ion spray voltage, 400 V focusing potential, and 200 °C ion source temperature. The positive ion electrospray mass spectra were recorded in the range of m/z 100–500 using Analyst 1.5.1. Software (AB SCIEX, Concord, ON, Canada). In additional experiments, the reaction mixture was separated and analyzed with an LTQ XL linear ion trap mass spectrometer coupled with the Accela LC system (Thermo Fisher Scientific, Waltham, MA, USA). The HPLC separation was performed using a Kinetex XB-C18 2.6 μm column, 0.1% formic acid in water, and ACN with 0.1% formic acid with gradient elution, and the flow rate was set to 300 μL/min. […]

MTT cell viability assay = format: cell-based; details: rat, H9c2 cells, read-out: cell viability compared to the control
Description: as §1

[9] = design: method as in ref 29 (Deng et al.); details: ref 29 (Deng et al.); cited from earlier work

SMILES	melting point	IC50 DPPH scavenging [7]	ORAC value (AUCnet) [4]	cytotoxic activity (cell viability) (H9c2 cells)	FRAP value [5]	further results
CN(C)c1ccc(-c2oc3ccccc3c(=O)c2O)cc1 [4′-N,N-dimethylamino-3-OH-flavon]	–	–	–	–	–	scavenging of DPPH radicals [1]: significant scavenging; scavenging of ABTS radicals [2]: significant scavenging
CN(C)c1ccc(-c2cc(=O)c3ccccc3o2)cc1 [4′-N,N-dimethylamino-flavon]	–	–	–	–	–	radical scavenger activity [3]: good radical scavenger
COc1ccc(-c2oc3ccc(-c4cccc(N(C)C)c4)cc3c(=O)c2O)cc1OC [6a, 2-(3,4-Dimethoxyphenyl)-6-[3-(dimethylamino)phenyl]-3-hydroxy-4H-chromen-4-one]	187.7 to 188.8 °C	–	highest ORAC value	did not exhibit cytotoxic activity	highest FRAP values	ORAC value compared to quercetin [4]: comparable to quercetin
COCc1ccc(-c2ccc3oc(-c4ccc(OC)c(OC)c4)c(O)c(=O)c3c2)cc1 [6b, 2-(3,4-Dimethoxyphenyl)-3-hydroxy-6-[4-(methoxymethyl)phenyl]-4H-chromen-4-one]	192.8 to 194.3 °C	–	highest ORAC value	significantly decreased the viability of cells	significantly lower ferrous equivalents	–
O=c1c(O)c(-c2ccc(O)c(O)c2)oc2cc(O)cc(O)c12 [quercetin]	–	–	–	–	–	FRAP value relative to the methylated form [9]: 650 times

Further lines, with some results ahead:

melting point	IC50 DPPH scavenging [7]	SMILES	ORAC value (AUCnet) [4]	cytotoxic activity (cell viability) (H9c2 cells)	FRAP value [5]	further results
–	lowest IC50 value	COc1ccc(-c2oc3cc(-c4cccc(N(C)C)c4)ccc3c(=O)c2O)cc1OC [6c, 2-(3,4-Dimethoxyphenyl)-7-[3-(dimethylamino)phenyl]-3-hydroxy-4H-chromen-4-one]	fourth highest capacity	did not exhibit cytotoxic activity	highest FRAP values	IC50 ABTS radical cation scavenging [6]: lowest IC50 value; oxidative transformation products (potential metabolites) [8]: two potential metabolites were detected
212.1 to 214.2 °C	–	COCc1ccc(-c2ccc3c(=O)c(O)c(-c4ccc(OC)c(OC)c4)oc3c2)cc1 [6d, 2-(3,4-Dimethoxyphenyl)-3-hydroxy-7-[4-(methoxymethyl)phenyl]-4H-chromen-4-one]	–	significantly decreased the viability of cells	significantly lower ferrous equivalents	viability at 12 h, 20 µM (MTT cell viability assay): 46%
179.5 to 181.8 °C	lower antioxidant potency	COc1cc(-c2oc3cc(-c4cccc(N(C)C)c4)ccc3c(=O)c2O)cc(OC)c1OC [6e, 7-[3-(Dimethylamino)phenyl]-3-hydroxy-2-(3,4,5-trimethoxyphenyl)-4H-chromen-4-one]	highest ORAC value	did not exhibit cytotoxic activity	highest FRAP values	ORAC value compared to quercetin [4]: comparable to quercetin
208.1 to 209.2 °C	lower antioxidant potency	COCc1ccc(-c2ccc3c(=O)c(O)c(-c4cc(OC)c(OC)c(OC)c4)oc3c2)cc1 [6f, 3-Hydroxy-7-[4-(methoxymethyl)phenyl]-2-(3,4,5-trimethoxyphenyl)-4H-chromen-4-one]	–	significantly decreased the viability of cells	significantly lower ferrous equivalents	–
